The values that follow come from PMC6994123, “A mosquito juvenile hormone binding protein (mJHBP) regulates the activation of innate immune defenses and hemocyte development” (PLoS Pathogens, 2020).

Experiment [1] concerns the target T1, mJHBP (Aedes aegypti, UniProt Q16Y94).
T1 construct: gene 5570847; two OBP domains; gel filtration, Q-Sepharose and Phenyl-Sepharose purified; probably mature protein
T1 sequence (Q16Y94 25-311): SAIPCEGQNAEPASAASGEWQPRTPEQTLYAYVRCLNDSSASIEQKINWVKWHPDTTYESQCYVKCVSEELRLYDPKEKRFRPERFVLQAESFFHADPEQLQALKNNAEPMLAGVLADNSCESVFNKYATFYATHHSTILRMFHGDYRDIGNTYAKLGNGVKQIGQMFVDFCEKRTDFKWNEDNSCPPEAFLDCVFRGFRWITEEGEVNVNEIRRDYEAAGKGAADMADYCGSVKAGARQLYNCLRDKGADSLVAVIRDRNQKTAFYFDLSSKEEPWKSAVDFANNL
Nature of the experiment: isothermal titration calorimetry, single-site fit. The class given is binding. The note with it: read-out: Ka. An excerpt:
isothermal titration calorimetry, single-site fit on mJHBP | wild type mJHBP.
(In general: ITC needs no label: the signal is the heat of the interaction.)

For experiment [2], the target named is T2, mJHBP (Aedes aegypti, UniProt Q16Y94, Y152F).
T2 construct: gene 5570847; two OBP domains; gel filtration, Q-Sepharose and Phenyl-Sepharose purified; probably mature protein
T2 sequence (Q16Y94 25-311 Y152F): T1 sequence (Q16Y94 25-311)
Nature of the experiment: isothermal titration calorimetry, single-site fit. The format is binding. The note with it: read-out: Ka (converted). From the text:
isothermal titration calorimetry, single-site fit on mJHBP | Y129F mutant.

In the case of `COC(=O)/C=C(\C)CC/C=C(\C)CC[C@H]1OC1(C)C` [JH III, juvenile hormone III], the Kd at mJHBP [1] is 100 nM; on mJHBP [2], 1090 nM.
